According to publication PMC7161699 (Acta Pharmaceutica Sinica. B, 2019):

Target: PAK1 (Homo sapiens, UniProt Q13153)
Assay: Z'-LYTE kinase assay, Ser/Thr […] peptide
Type: biochemical

Sequence of PAK1 (Q13153 2-545): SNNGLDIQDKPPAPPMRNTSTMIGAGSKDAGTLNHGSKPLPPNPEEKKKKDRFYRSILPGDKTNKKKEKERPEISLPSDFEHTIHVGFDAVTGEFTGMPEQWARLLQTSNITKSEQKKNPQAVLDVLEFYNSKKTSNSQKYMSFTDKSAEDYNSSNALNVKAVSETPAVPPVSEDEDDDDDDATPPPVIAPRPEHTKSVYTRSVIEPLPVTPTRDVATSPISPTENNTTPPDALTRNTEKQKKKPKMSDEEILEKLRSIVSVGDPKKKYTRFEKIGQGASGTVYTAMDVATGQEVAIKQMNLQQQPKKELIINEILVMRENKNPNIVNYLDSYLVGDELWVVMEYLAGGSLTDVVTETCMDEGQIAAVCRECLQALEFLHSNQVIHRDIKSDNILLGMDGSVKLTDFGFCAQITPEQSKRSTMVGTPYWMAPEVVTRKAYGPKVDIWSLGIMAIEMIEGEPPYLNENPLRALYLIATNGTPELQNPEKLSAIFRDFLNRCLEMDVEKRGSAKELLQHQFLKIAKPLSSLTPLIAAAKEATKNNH

IC50: 15.3 µM
SMILES: Cc1ccc2[nH]c(=O)c3cc(C(=O)NCCCN(C)Cc4ccccc4)sc3c2c1 [CP734, N-[3-(benzyl-methylamino)propyl]-8-methyl-4-oxo-5H-thieno[4,5-c]quinoline-2-carboxamide]
